Consider four compounds from PMC8742467, “Therapeutical interference with the epigenetic landscape of germ cell tumors: a comparative drug study and new mechanistical insights” (Clinical Epigenetics, 2022).

Where two headings read alike, the source gives them in different places.

One assay has as its system JAR (CC). Nature of the assay: XTT cell viability assay, JAR. The format is cell-based. As to conditions: Homo sapiens, after 48 h, n = 4, read-out: EC50 colour/symbol code, CC JAR. Here is the method:
(§1) The […] (XTT) assays were performed as described previously. In summary, for GCT and fibroblast cell lines 5 × 10^3 cells (3 × 10^3 for UC, PCa and RCC cell lines) per 96-well were seeded and different drug concentrations (see Additional file 2: Fig. S2, Additional file 3: Fig. S3) or corresponding solvents were added to the cells the following day. For drug details see Additional file 12: Table S2 C. Each condition was analyzed in four technical replicates and EC50 values were calculated by GraphPad Prism v8.

Another assay deals with TCam-2 (SE). The experiment in a line: XTT cell viability assay, TCam-2. The format is cell-based. As to conditions: Homo sapiens, read-out: EC50 colour/symbol code, SE TCam-2. As to the method:
as §1
In general terms: Formazan colour is commonly taken as a measure of viable cells.

The subject of assay [1] is SE-R (cisplatin-resistant seminoma subclone). The experiment in a line: XTT cell viability assay, mean per entity SE-R. The format is cell-based. As to conditions: Homo sapiens, after 48 h. Here is the method: as §1
In another assay the test system is Sertoli cells FS1 (SC). The experiment in a line: XTT cell viability assay, Sertoli cells. As to conditions: Homo sapiens; after 48 h. The format is cell-based. As to the method: as §1
In assay [2] the test system is EC-R (cisplatin-resistant embryonal carcinoma subclones). Nature of the assay: XTT cell viability assay, mean per entity EC-R. The format is cell-based. As to conditions: Homo sapiens, after 48 h. As to the method: as §1
Assay [3] relates to DNA methylation (5mC, 5hmC) in 2102EP cells. The experiment in a line: DNA slot blot (5mC, 5hmC). As to conditions: 24 h; for 5mC levels compared to solvent control: solvent control set to 100%. The format is cell-based, Human.
Description: Purity of DNA was verified using NanoDrop 260/280 ratio and agarose gel electrophoresis. DNA was diluted in H2O to 200 ng, 100 ng and 50 ng in 200 µl per slot. Slot-Blotter device (Carl Roth GmbH + Co KG, Karlsruhe, Germany) was assembled as according to the manual. DNA was blotted onto a positively charged nylon membrane (Carl Roth GmbH + Co KG, Karlsruhe, Germany) using vacuum application. Three identical membranes were prepared. The membranes were air-dried for 15—20 min and UV-crosslinked (20 s (s), 1200 mJ/cm^2). One membrane was stained with methylene blue (0.02% methylene blue (Merck Millipore, Darmstadt, Germany) in 0.3 M sodium acetate (pH 5.2)) to validate DNA loading across the samples. The remaining two membranes were blocked in 5% milk powder in PBST for 1 h at RT. Membranes were incubated with 5mC or 5hmC antibody overnight at 4 °C. After washing, membranes were incubated with secondary antibody for 2 h at RT. Signals were detected using the ChemiDoc Imaging Systems (Bio-Rad Laboratories, Feldkirchen, Germany).
Assay [4] deals with PRKCB, PRKD1, HDAC9, CSF1R expression in GCT cells. Nature of the assay: Quantitative RT-PCR of co-treatment target genes. The format is cell-based, Human. As to conditions: 0.2 × EC50, 0.5 × EC50 and EC50. Here is the method:
Quantitative RT-PCR (qRT-PCR) was performed as described previously. A total amount of 1 µg of RNA was in-vitro transcribed into cDNA by using Oligo(dT)18 Primer and Maxima H Minus Reverse Transcriptase (200 U/µL) (all Thermo Fisher Scientific). qRT-PCR runs were performed on a 384-well C1000 cycler (BioRad, Feldkirchen, Germany). All samples were analyzed in technical triplicates using 7.34 ng of cDNA for each replicate and the SYBR-green-based Luna Universal qPCR Master Mix (New England Biolabs, Frankfurt am Main, Germany). At the end of each run, melting curve analyses were performed. Oligonucleotide sequences are given in the supplement (Additional file 12: Table S2 B).

Another assay has as its system GCT cell lines. Nature of the assay: XTT cell viability assay, GCT cell lines (pre-screen / summary). The format is cell-based, Human. The following applies: for EC50 / effective concentration in words: SE and EC proxies TCam-2 and 2102EP. In short, it runs like this:
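GCT cells seeded at 5 × 10^3/well, UC lines at 3 × 10^3/well; drug dilution series or solvent added next day. Viability read by XTT, four technical replicates per condition; EC50 calculated from concentration–response data.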

For assay [5], the system named is CC-R (cisplatin-resistant choriocarcinoma subclones). The experiment in a line: XTT cell viability assay, mean per entity CC-R. The format is cell-based. As to conditions: Homo sapiens, after 48 h. Here is the method:
as §1

The subject of assay [6] is YST (yolk-sac tumor) cell lines. Nature of the assay: XTT cell viability assay, mean per entity YST. The format is cell-based. As to conditions: Homo sapiens, after 48 h. Here is the method: as §1
A further assay concerns SE (seminoma) cell lines. Nature of the assay: XTT cell viability assay, mean per entity SE. The format is cell-based. The following applies: Homo sapiens, after 48 h. Here is the method: as §1
In assay [7] the test system is phosphorylated kinase targets in 2102EP cells. The experiment in a line: Proteome Profiler Human Phospho-Kinase Array. As to conditions: 16 h. The format is cell-based. Here is the method:
For the detection of phosphorylated kinase targets, the Proteome Profiler Human Phospho-Kinase Array Kit (R&D Systems, Abingdon, UK) was used according to the manufacturer’s instructions. The ChemiDoc Imaging System (Bio-Rad Laboratories, Feldkirchen, Germany) was used for detection. 2102EP cells were harvested after 16 h of treatment with the epi-drugs. Pixel density was analyzed using Fiji ImageJ 1.53c.

Another assay relates to 2102EP (EC). The experiment in a line: XTT cell viability assay, 2102EP. The format is cell-based. The following applies: Homo sapiens, read-out: EC50 colour/symbol code, EC 2102EP. Here is the method:
as §1

The mark [8] stands for this setting: Homo sapiens, GCT, cell line not stated, read-out: EC50 concentration used for low dose qRT-PCR.

`CCCc1cc(C)[nH]c(=O)c1CNC(=O)c1cc(-c2ccnc(N3CCN(C)CC3)c2)cc2c1cnn2C(C)C` [GSK343]: the EC50 with JAR (CC) was 1000 to 50000 nM; in the assay with TCam-2 (SE) (after 48 h, XTT, n = 4) it was 1000 to 50000 nM; in assay [1], 10100 nM; with Sertoli cells FS1 (SC), 10600 nM; in [2] it was 9410 nM; in the assay with GCT cell lines (setting [8]) it was 10700 nM. The EC50 was no more than 50000 nM in the assay on GCT cell lines (Homo sapiens, GCT, first pre-screen, XTT, read-out: EC50); 9060 nM in [5]; 6180 nM in [6]; 12100 nM in the assay with SE (seminoma) cell lines; 1000 to 50000 nM in the assay with 2102EP (EC) (after 48 h, XTT, n = 4). Further, in assay [3], the “5hmC levels increase compared to solvent control” value turned out to be 30%. Further, the “5mC levels compared to solvent control” value in assay [3] was 52%. Also, in [4], the “CSF1R expression (qRT-PCR)” value is “upregulation”. In addition, in assay [4], the “HDAC9 expression (qRT-PCR)” value is reported as “upregulation”. Further, the “CREB, STAT3 and STAT5 phosphorylation and total levels of β-Catenin and HSP60” value (from here on “CREB … of β-Catenin and HSP60”) in assay [7] is listed as “decreased”. Moreover, the ERK1/2 phosphorylation entry in assay [7] is on record as “decreased”.

`CN1C(=O)[C@@]23C[C@]4([C@]56C[C@@]78SS[C@@](CO)(C(=O)N7[C@H]5Nc5ccccc56)N(C)C8=O)c5ccccc5N[C@@H]4N2C(=O)[C@]1(CO)SS3` [Chaetocin]: the EC50 in the assay on JAR (CC) was less than 1000 nM; with TCam-2 (SE) (48 h), less than 1000 nM; in assay [1] it was 218 nM; in the assay with Sertoli cells FS1 (SC), 69.3 nM; in [2] it was 161 nM; with GCT cell lines (setting [8]), 173 nM. For the same compound, the EC50 was 233 nM in assay [5], 98.7 nM in assay [6], 122 nM in the assay with SE (seminoma) cell lines and less than 1000 nM in the assay on 2102EP (EC) (48 h). Besides, the “5mC levels compared to solvent control” value in assay [3] is 85%. In addition, in assay [4], the “PRKD1 expression (qRT-PCR)” value was “upregulation”. The “EC50 / effective concentration in words” value with GCT cell lines (first pre-screen, XTT) is reported as “nanomolar range”. Besides, in assay [7], the “CREB … of β-Catenin and HSP60” value is “decreased”. Moreover, in [7], the “p53 S15 phosphorylation” value was “increased”.

Regarding `Cn1cc(CNCC2CCN(c3ncc(C(=O)NO)cn3)CC2)c2ccccc21` [Quisinostat], the EC50 with JAR (CC) is less than 1000 nM; in the assay with TCam-2 (SE) (after 48 h, XTT, n = 4), less than 1000 nM; in assay [1] it was 13.2 nM; in the assay on Sertoli cells FS1 (SC) it was 6.25 nM; in assay [2], 7.35 nM; with GCT cell lines (setting [8]), 1.76 nM. Further, the EC50 in assay [5] is 10.7 nM; in [6], 6.88 nM; with SE (seminoma) cell lines it was 9.48 nM; with 2102EP (EC) (after 48 h, XTT, n = 4), less than 1000 nM. The “PRKCB expression (qRT-PCR)” value in assay [4] is “upregulation”. The “EC50 / effective concentration in words” value in the assay on GCT cell lines (first pre-screen, XTT) is on record as “nanomolar range”. In addition, the “CREB … of β-Catenin and HSP60” value in [7] is given as “decreased”. For the same compound, the “p53 S15 phosphorylation” value in assay [7] is listed as “no alteration”.

For `O=C1C(=Cc2cccnc2)C(=O)c2ccccc21` [PRT4165], in assay [3], the “5hmC levels increase compared to solvent control” value was 25% and the “5mC levels compared to solvent control” value is listed as 84%. Further, the EC50 in the assay on GCT cell lines (first pre-screen, XTT, read-out: EC50) was no more than 50000 nM. Besides, in assay [7], the “CREB … of β-Catenin and HSP60” value is recorded as “decreased”; the ERK1/2 phosphorylation entry is “decreased”.
